Measured values as given in article PMC11078216, “Discovery of potent and selective activity-based probes (ABPs) for the deubiquitinating enzyme USP30” (RSC Chemical Biology, 2024).

Columns and labels:
UCHL1 = molecular target: T1, UCHL1 (Homo sapiens, UniProt P09936); assay: Cross-screening against unrelated DUB UCHL1; assay type: biochemical; settings: Table S1, ESI
T1 sequence (P09936 1-223): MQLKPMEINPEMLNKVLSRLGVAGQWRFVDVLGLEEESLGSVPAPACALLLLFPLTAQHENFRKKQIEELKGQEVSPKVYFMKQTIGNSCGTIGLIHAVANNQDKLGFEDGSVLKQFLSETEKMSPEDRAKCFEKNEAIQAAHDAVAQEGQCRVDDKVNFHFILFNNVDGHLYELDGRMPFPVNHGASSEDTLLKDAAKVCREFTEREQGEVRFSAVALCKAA

USP30 = molecular target: T2, USP30 (Homo sapiens, UniProt Q70CQ3); assay: Biotin pulldown (Neutravidin enrichment) and immunoblotting for USP30; assay type: cell-based; settings: HEK293T, 1 h; for extent of USP30 engagement and enrichment: 100 nM probe, pulldown; for probe concentration at which USP30 was enriched (pulldown) / probe concentration of maximal USP30 enrichment (pulldown): biotin pulldown and immunoblotting
T2 construct: We next determined cellular engagement of endogenous USP30 with IMP-2587 or IMP-2586; endogenous in cells; host or cells: HEK293T
T2 sequence (Q70CQ3 1-517): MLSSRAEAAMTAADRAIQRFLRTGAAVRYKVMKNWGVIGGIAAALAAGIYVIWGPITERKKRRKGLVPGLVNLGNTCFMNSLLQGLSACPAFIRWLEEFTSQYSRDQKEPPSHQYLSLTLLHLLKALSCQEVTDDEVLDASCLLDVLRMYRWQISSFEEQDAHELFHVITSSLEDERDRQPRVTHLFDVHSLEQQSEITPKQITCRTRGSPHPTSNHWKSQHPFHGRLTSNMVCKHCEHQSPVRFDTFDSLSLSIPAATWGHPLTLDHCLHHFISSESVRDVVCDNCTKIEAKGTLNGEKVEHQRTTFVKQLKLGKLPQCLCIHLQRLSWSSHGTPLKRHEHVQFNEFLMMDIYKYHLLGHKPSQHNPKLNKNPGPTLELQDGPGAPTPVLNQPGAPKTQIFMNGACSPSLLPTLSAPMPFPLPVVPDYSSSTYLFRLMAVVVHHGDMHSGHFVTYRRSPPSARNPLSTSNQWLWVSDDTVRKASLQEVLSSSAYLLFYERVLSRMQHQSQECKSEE
Procedure: We next determined cellular engagement of endogenous USP30 with IMP-2587 or IMP-2586. […] In-cell concentration-dependent competition by IMP-2587 and IMP-2586 for USP30 were confirmed below 100 nM probe (Fig. 2b and c), whilst engagement of an exemplar unrelated DUB, UCHL1, occurred only at a much higher concentration (30 000 nM). We hypothesise that incomplete modification of USP30 by HA-Ub-VME is likely due to limited retention of USP30 activity in cell lysates, which have likely had the USP30 transmembrane domain compromised, highlighting the potential utility of a small molecule USP30 ABP applicable directly in intact cells. Direct USP30 target engagement by IMP-2587 and IMP-2586 was confirmed in HEK293T cells following 1 h probe treatment followed by cell lysis and CuAAC bio-orthogonal ligation to capture reagent azido-TAMRA-biotin (AzTB) for IMP-2587 or alkyne-TAMRA-biotin for IMP-2586 (Fig. 3a).[27] […] This unspecific background labelling is presumably due to the previously reported higher off-target CuAAC reactivity of an alkyne-bearing capture reagent, applied here due to incorporation of an azide tag in IMP-2586.[28] Moreover, the labelling of USP30 was further confirmed by biotin pulldown and immunoblotting. […]
d) Live cell probe incubation, lysate click chemistry and precipitation 6-well HEK293T cells were incubated with media containing compounds ABP 2 and ABP 4 at indicated concentrations for 1 h at 37 °C. The cells were washed with PBS and lysed with lysis buffer (50 μL (1% (v/v) Triton X-100, 0.1% (w/v) sodium dodecyl sulfate (SDS), EDTA-free complete protease inhibitor cocktail (1×, Roche) in PBS on ice for 10 min. The lysates were scraped and transferred to corresponding Lo-Bind Eppendorfs. Each lysate was sonicated for 1 minute, and the samples centrifuges at 5,000 x g at 4 °C for 5 minutes to pellet insoluble cellular debris. The supernatant was collected, and protein concentration was determined using the DC Protein Assay (Bio-Rad) as per manufacturer’s instructions, and normalised to lowest concentrated sample (e.g. 1 mg/mL, using lysis buffer). The following “click mixture” was prepared separately, preparing 6 μL for every 100 μL of […]
Capture reagent (AzRB/AzT for ABP 2, YnT/YnB for ABP 4 10 mM in DMSO, 1 vol; final concentration […]
CuSO4 (50 mM in water, 2 vol; final concentration in reaction 1 mM)
TCEP (50 mM in water, 2 vol; final concentration in reaction 1 mM)
TBTA (10 mM in DMSO, 1 vol; final concentration in reaction 100 µM)
The click mixture was vortexed and incubated at room temperature for 2 min before 6 μL of the mixture was added to every 100 μL of lysate. The reaction mixtures were shaken at room temperature for 1 h before being quenched with EDTA (500 mM in H2O) to a final concentration of 10 mM.
Proteins were precipitated by adding H2O (1 vol), MeOH (2 vol) and CHCl3 (0.5 vol), vortexing briefly then centrifuging at 17,000 × g for 5 min. The top H2O/MeOH layer was discarded and the middle layer of protein pellet and lower CHCl3 layer retained. The suspension was washed with MeOH (300 μL), and sonicated to break up the pellet. The proteins were pelleted by centrifugation at 10,000–17000 × g for 5–10 min or until a compact pellet was formed. The protein pellet was washed once more with MeOH (1 mL). The pellet was resuspended by sonicating and completely dissolving in 1% (w/v) SDS in PBS (to 5 mg/mL protein) before being made up to 1 mg/mL protein with PBS.
The lysate samples (10-20 μg) were mixed with 4× Laemmli sample loading buffer (250 mM Tris -HCl pH 6.8, 30% (v/v) glycerol, 10% (w/v) SDS, 0.05% (w/v) bromophenol blue) supplemented with 20% v/v β-mercaptoethanol (BME) and boiled for 10 min at 95 °C. The resulting protein samples were separated according to the protocol in section 3.2.c. Gel were imaged on a Typhoon imager (GE Healthcare; λEx 532 nm, λEm 575 nm for TAMRA. For protein loading quantification, gels were stained with Coomassie blue staining solution overnight, rinsed with water and imaged on an ImageQuant™ […]

SMILES	activity against UCHL1 (cross-screening) (UCHL1)	extent of USP30 engagement and enrichment (USP30)	probe concentration at which USP30 was enriched (pulldown) (USP30)	probe concentration of maximal USP30 enrichment (pulldown) (USP30)
C#Cc1cccc(-c2cc(NC(=O)CC3CCN(C#N)C3)on2)c1 (centres unmarked) [IMP-2587]	no activity	almost complete engagement and enrichment	10 nM	100 nM
N#CN1CC[C@@H](NC(=O)c2cc(-c3ccccc3Oc3ccc(N=[N+]=[N-])cc3)n[nH]2)C1 [IMP-2586]	no activity	almost complete engagement and enrichment	10 nM	100 nM
